Several values for one entry are separate records, joined by “and”; a condition that tells them apart may be missing. Equal values may be shown once. Inconclusive results and toxic doses are left out. No stated cut-off is given here; in the data, active means T/C of 150% or more; inactive means T/C below 125%.
Test system: L1210 leukemia ip in BDF1 mice, survival T/C
Assay: NCI In Vivo Anticancer Drug Screen. Data for tumor model L1210 Leukemia (intraperitoneal) in B6D2F1 (BDF1) mice
Conditions: endpoint: mean survival time, higher = longer survival
How it was run: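 Transplanted-tumor mice were given test agent; controls received vehicle only. Survival readings from the two groups were divided (treated over control).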

[1] = dose: 100.0 mg/kg/injection, schedule: Q04DX003 (ip), vehicle: saline with Tween-80
[2] = dose: 100.0 mg/kg/injection, schedule: Q01DX001 (ip), vehicle: Klucel (hydroxypropylcellulose) (HPC)
[3] = dose: 100.0 mg/kg/injection, schedule: Q04DX003 (ip), vehicle: Klucel (hydroxypropylcellulose) (HPC)
[4] = dose: 200.0 mg/kg/injection, schedule: Q04DX003 (ip), vehicle: Klucel (hydroxypropylcellulose) (HPC)
[5] = dose: 50.0 mg/kg/injection, schedule: Q01DX001 (ip), vehicle: saline
[6] = dose: 100.0 mg/kg/injection, schedule: Q01DX001 (ip), vehicle: saline
[7] = dose: 200.0 mg/kg/injection, schedule: Q01DX001 (ip), vehicle: saline
[8] = dose: 400.0 mg/kg/injection, schedule: Q01DX001 (ip), vehicle: saline
[9] = dose: 100.0 mg/kg/injection, schedule: Q04DX003 (ip), vehicle: saline
[10] = dose: 200.0 mg/kg/injection, schedule: Q04DX003 (ip), vehicle: saline
[11] = dose: 400.0 mg/kg/injection, schedule: Q04DX003 (ip), vehicle: Klucel (hydroxypropylcellulose) (HPC)
[12] = dose: 100.0 mg/kg/injection, schedule: Q04DX002 (ip), vehicle: saline with Tween-80
[13] = dose: 200.0 mg/kg/injection, schedule: Q04DX002 (ip), vehicle: saline with Tween-80

Measured: T/C

CCCCN=C(N)c1ccc(NC(=O)c2ccc(C(=O)Nc3ccc(C(N)=NCCCC)cc3)cc2)cc1
inactive: dose: 6.0 mg/kg/injection, schedule: Q01DX001 (ip), vehicle: methylcellulose (MC) 110 % of control | dose: 12.0 mg/kg/injection, schedule: Q01DX Z (ip), vehicle: methylcellulose (MC) 100 % of control | dose: 15.0 mg/kg/injection, schedule: Q01DX001 (ip), vehicle: methylcellulose (MC) 119 % of control
active: dose: 6.0 mg/kg/injection, schedule: Q01DX Z (ip), vehicle: methylcellulose (MC) 212 % of control

O=C1OCC/C1=C\C1CC=CCC1 (configuration not stated)
inactive: dose: 67.0 mg/kg/injection, schedule: Q04DX003 (ip), vehicle: saline with Tween-80 96 % of control | [1] 88 % of control | dose: 150.0 mg/kg/injection, schedule: Q04DX003 (ip), vehicle: saline with Tween-80 96 % of control

O=C(Nc1ccccc1)Nc1ccc(Cl)cc1Cl
inactive: dose: 12.5 mg/kg/injection, schedule: Q04DX002 (ip), vehicle: other 107 % of control | dose: 25.0 mg/kg/injection, schedule: Q04DX002 (ip), vehicle: other 93 % of control | dose: 50.0 mg/kg/injection, schedule: Q04DX002 (ip), vehicle: other 90 % of control | dose: 100.0 mg/kg/injection, schedule: Q04DX002 (ip), vehicle: other 96 % of control

Nc1ccn(Cc2cccc3ccccc23)c(=O)n1
inactive: dose: 100.0 mg/kg/injection, schedule: Q04DX003 (ip), vehicle: gum acacia 93 % of control | dose: 200.0 mg/kg/injection, schedule: Q04DX003 (ip), vehicle: gum acacia 90 % of control | dose: 400.0 mg/kg/injection, schedule: Q04DX003 (ip), vehicle: gum acacia 90 % of control

CCOC(=O)C(CC)(OO)c1ccncc1Br (configuration not stated)
inactive: dose: 25.0 mg/kg/injection, schedule: Q01DX001 (ip), vehicle: Klucel (hydroxypropylcellulose) (HPC) 101 % of control | dose: 50.0 mg/kg/injection, schedule: Q01DX001 (ip), vehicle: Klucel (hydroxypropylcellulose) (HPC) 104 % of control | dose: 50.0 mg/kg/injection, schedule: Q04DX003 (ip), vehicle: Klucel (hydroxypropylcellulose) (HPC) 101 % of control | [2] 100 % of control and 101 % of control | [3] 91 % of control | [4] 92 % of control

Cc1ccc(S(=O)(=O)F)cc1C(=O)Nc1ccc(OCCCc2c(N)nc(N)nc2N)cc1
inactive: dose: 37.5 mg/kg/injection, schedule: Q01DX001 (ip), vehicle: Klucel (hydroxypropylcellulose) (HPC) 96 % of control | dose: 75.0 mg/kg/injection, schedule: Q01DX001 (ip), vehicle: Klucel (hydroxypropylcellulose) (HPC) 94 % of control | dose: 150.0 mg/kg/injection, schedule: Q01DX001 (ip), vehicle: Klucel (hydroxypropylcellulose) (HPC) 98 % of control

O=C(O)Cc1cc2c(cc1[N+](=O)[O-])OCO2
inactive: [5] 103 % of control | [6] 97 % of control | [7] 97 % of control | [8] 103 % of control

CC(=O)c1ccc(OCC(=O)O)cc1
inactive: [2] 97 % of control | dose: 200.0 mg/kg/injection, schedule: Q01DX001 (ip), vehicle: Klucel (hydroxypropylcellulose) (HPC) 97 % of control | dose: 400.0 mg/kg/injection, schedule: Q01DX001 (ip), vehicle: Klucel (hydroxypropylcellulose) (HPC) 101 % of control

CSc1ncnc2c1ncn2C1OC(COC(N)=O)C(O)C1O (configuration not stated)
inactive: dose: 100.0 mg/kg/injection, schedule: Q01DX005 (ip), vehicle: saline 107 % of control | dose: 200.0 mg/kg/injection, schedule: Q01DX005 (ip), vehicle: saline 114 % of control

COc1cccc(N=Nc2c(N)nc(N)[nH]c2=O)c1
inactive: dose: 50.0 mg/kg/injection, schedule: Q01DX009 (ip), vehicle: saline 90 % of control | dose: 50.0 mg/kg/injection, schedule: Q04DX003 (ip), vehicle: saline 101 % of control | [6] 104 % of control | dose: 100.0 mg/kg/injection, schedule: Q01DX009 (ip), vehicle: saline 92 % of control | [9] 98 % of control | [7] 107 % of control | dose: 200.0 mg/kg/injection, schedule: Q01DX009 (ip), vehicle: saline 95 % of control | [10] 102 % of control | [8] 104 % of control

O=CC(C=O)[N+](=O)[O-]
inactive: dose: 100.0 mg/kg/injection, schedule: Q01DX009 (ip), vehicle: Klucel (hydroxypropylcellulose) (HPC) 100 % of control | dose: 100.0 mg/kg/injection, schedule: Q04DX002 (ip), vehicle: Klucel (hydroxypropylcellulose) (HPC) 97 % of control | [3] 97 % of control | dose: 200.0 mg/kg/injection, schedule: Q01DX009 (ip), vehicle: Klucel (hydroxypropylcellulose) (HPC) 105 % of control | dose: 200.0 mg/kg/injection, schedule: Q04DX002 (ip), vehicle: Klucel (hydroxypropylcellulose) (HPC) 94 % of control | [4] 102 % of control | dose: 400.0 mg/kg/injection, schedule: Q01DX009 (ip), vehicle: Klucel (hydroxypropylcellulose) (HPC) 108 % of control | dose: 400.0 mg/kg/injection, schedule: Q04DX002 (ip), vehicle: Klucel (hydroxypropylcellulose) (HPC) 105 % of control | [11] 102 % of control

NNc1nc2ccccc2s1
inactive: dose: 6.25 mg/kg/injection, schedule: Q01DX009 (ip), vehicle: Klucel (hydroxypropylcellulose) (HPC) 90 % of control | dose: 12.5 mg/kg/injection, schedule: Q01DX009 (ip), vehicle: Klucel (hydroxypropylcellulose) (HPC) 100 % of control | dose: 25.0 mg/kg/injection, schedule: Q01DX009 (ip), vehicle: Klucel (hydroxypropylcellulose) (HPC) 94 % of control | dose: 50.0 mg/kg/injection, schedule: Q01DX009 (ip), vehicle: Klucel (hydroxypropylcellulose) (HPC) 91 % of control

CC1C2CC(C3(C)OCCO3)CCC2(C)CCC12OCCO2 (configuration not stated)
inactive: [3] 101 % of control | [4] 106 % of control | [11] 106 % of control

Clc1nc2nnnn2c2ccccc12
inactive: dose: 20.0 mg/kg/injection, schedule: Q04DX003 (ip), vehicle: saline 101 % of control | dose: 40.0 mg/kg/injection, schedule: Q04DX003 (ip), vehicle: saline 101 % of control | dose: 80.0 mg/kg/injection, schedule: Q04DX003 (ip), vehicle: saline 104 % of control

N=C(N)SCc1ccc(Cl)c(Cl)c1
inactive: dose: 50.0 mg/kg/injection, schedule: Q01DX003 (ip), vehicle: Klucel (hydroxypropylcellulose) (HPC) 106 % of control | dose: 100.0 mg/kg/injection, schedule: Q01DX003 (ip), vehicle: Klucel (hydroxypropylcellulose) (HPC) 101 % of control | [9] 102 % of control | [10] 89 % of control

CCC(C)C(C)C(C)=O (configuration not stated)
inactive: [5] 110 % of control | [6] 101 % of control | [7] 93 % of control

CC(=O)Nc1cc2c(cc1Cl)-c1ccccc1C2Br (configuration not stated)
inactive: [3] 96 % of control | [4] 94 % of control | [11] 96 % of control

CC1(c2cccs2)NC(=O)NC1=O (configuration not stated)
inactive: dose: 100.0 mg/kg/injection, schedule: Q01DX001 (ip), vehicle: carboxymethylcellulose (CMC) 95 % of control | dose: 100.0 mg/kg/injection, schedule: Q01DX009 (ip), vehicle: saline with Tween-80 102 % of control | [1] 105 % of control and 96 % of control | dose: 200.0 mg/kg/injection, schedule: Q01DX001 (ip), vehicle: carboxymethylcellulose (CMC) 101 % of control | dose: 200.0 mg/kg/injection, schedule: Q01DX009 (ip), vehicle: saline with Tween-80 110 % of control | dose: 200.0 mg/kg/injection, schedule: Q04DX003 (ip), vehicle: saline with Tween-80 109 % of control and 96 % of control | dose: 400.0 mg/kg/injection, schedule: Q01DX001 (ip), vehicle: carboxymethylcellulose (CMC) 97 % of control | dose: 400.0 mg/kg/injection, schedule: Q01DX009 (ip), vehicle: saline with Tween-80 109 % of control | dose: 400.0 mg/kg/injection, schedule: Q04DX003 (ip), vehicle: saline with Tween-80 107 % of control and 105 % of control

Cc1c2ccccc2c2ccccc2[n+]1[O-]
inactive: [12] 97 % of control | [13] 101 % of control

CCCCCCCCCCCCNc1nnc(Cl)c2ccccc12
inactive: [3] 95 % of control | [4] 97 % of control | [11] 92 % of control

O=C(O)c1ccccc1Br
inactive: [12] 96 % of control | [13] 93 % of control

Cc1ccc(C(=O)N2CCCCC2)c[n+]1C
inactive: [6] 104 % of control | [7] 100 % of control | [8] 105 % of control

O=C(C1=CN(CC(O)c2ccccc2)CCC1)c1cc2ccccc2n1S(=O)(=O)c1ccccc1 (configuration not stated)
inactive: [12] 97 % of control | [13] 94 % of control | dose: 400.0 mg/kg/injection, schedule: Q04DX002 (ip), vehicle: saline with Tween-80 94 % of control

Reference: PubChem BioAssay AID248 (DTP/NCI, 2004)
